Legend:
[1] = test system: T24; test: MTT test, T24; type: cell-based; conditions: Homo sapiens, T-24, 10^−5 M, 72 hours, control = 100%, mean ± SEM, read-out: average optical density (MTT), percentage relative to control
Procedure: The influence of the compounds of formulae (I) and (Ia) on non-clonogenic cells was evaluated with the aid of the MTT calorimetric test.
The principle of the MTT test is based on the mitochondrial reduction, by the metabolically active live cells, of the yellow-colored product MTT (3-(4,5-dimethylthiazol-2-yl)-2,5-diphenyltetrazolium bromide) to a blue-colored product, formazan. The amount of formazan thus obtained is directly proportional to the amount of live cells present in the culture well(s). This amount of formazan is measured by spectrophotometry.
The cell lines are maintained as a monolayer culture at 37° C. in stoppered culture dishes containing MEM 25 MM HEPES (Minimum Essential Medium) base medium. This medium is suited to the growth of a range of various mammalian diploid or primary cells. This medium is then supplemented with:
an amount of 5% of FCS (Foetal Calf Serum) decomplemented at 56° C. for 1 hour,
0.6 mg/ml of L-glutamine,
200 μg/ml of streptomycin,
The 12 human cancer cell lines which were used were obtained from the American Type Culture Collection (ATCC, Rockville, Md., USA). These 12 cell lines are:
J82 (code ATCC: HTB-1) and T24 (code ATCC: HTB-4) which are two bladder cancers,
Experimentally: 100 μl of a cell suspension containing 20 000 to 50 000 (depending on the cell type used) cells/ml of culture medium are inoculated in 96-well flat-bottomed multi-well plates and are incubated at 37° C., under an atmosphere comprising 5% CO2 and 70% humidity. After incubation for 24 hours, the culture medium is replaced with 100 μl of fresh medium containing either the various test compounds at concentrations ranging from 10^−5 to 10^−10 M or the solvent used to dissolve the test products (control condition). After incubation for 72 hours under the above conditions, the culture medium is replaced with 100 μl of a yellowish solution of MTT dissolved at a rate of 1 mg/ml in RPMI 1640. The microplates are reincubated for 3 hours at 37° C. and are then centrifuged for 10 minutes at 400×g. The yellowish solution of MTT is removed and the blue formazan crystals formed in the cell are dissolved in 100 μl of DMSO. The microplates are then shaken for 5 minutes. The intensity of the resulting blue coloration, and thus of the conversion of the yellow product MTT into blue formazan by the cells that are still alive at the end of the experiment, is quantified by spectrophotometry using a Dynatech Immunoassay System machine at wavelengths of 570 nm and 630 nm corresponding, respectively, to the maximum absorption wavelengths of formazan and to the background noise. Software incorporated in the spectrophotometer calculates the average optical density values and the standard deviation (SD) and standard error of mean (SEM) values.
By way of example, the results of the average optical density, expressed as a percentage relative to the average optical density measured under the control condition (set equal to 100%), obtained at a concentration of 10^−5 M on the 12 abovementioned tumor cell lines are given in Table II.

[2] = test system: colorectal line HT-29; test: Clonogenic test (soft agar colony growth), HT-29; type: cell-based; conditions: 21 days, control = 100%, mean ± SEM
From the text: 1—Interaction (Stimulation or Inhibition of Proliferation) With the Generation of Clonogenic Cells (Clonogenic Test)
The test used is that described by Hamburger et al. (Science, 1977; 197, 461-463) and Salmon et al. (New England J. Med., 298, 1321-1327). A cell is considered clonogenic if it has the capacity to proliferate and to give rise to a cell colony. “Human tumor stem cells” are the cells which are the source of the neoplastic cells which constitute a given tumor. These tumor stem cells are responsible for the relapse processes which may be observed after surgical resection of primary tumors and are also responsible for the formation of metastases. In a tumor or a tumor cell line, these clonogenic stem cells differ from the other cells of the tumor or from the neoplastic cell line under consideration in that they conserve their capacity to proliferate in the absence of any solid support.
In this test, the tumor cells are cultured on a semi-solid support consisting of agar. […] In a tumor cell population, cultured on such a support, it is these clonogenic cells (associated with an unlimited number of cell divisions and whose proliferation is referred to by M. I. Dawson as “anchorage-independent [clonal] growth”) which are capable of growing. The percentage of these clonogenic cells in a tumor or a cell line ranges between 0.1% and 0.001%.
The influence of the compounds of formulae (I) and (Ia) on the growth of the cell colonies obtained by culturing, for example, the mammalian tumor lines MCF7 and MXT and the colorectal line HT-29 on the semi-liquid culture medium known as “soft agar” was measured. On such a medium, only the clonogenic cells referred to by M. I. Dawson as “anchorage-independent (clonal) cells” survive and grow. The growth of these cells in such a “non-adherent” mode bears witness to their degree of tumorigenicity. The inhibition of the growth of the size of a tumor in which a larger number of clonogenic cells has developed then becomes the evidence of reinforced cytotoxic activity.
Conversely, this test can also reveal that a compound is capable of inhibiting the generation/proliferation of clonogenic cells, thus making the tumor less able to grow and thus reducing the population of tumor cells.
The tumor cell lines studied are maintained in culture in 25 cm^2 falcon dishes. They are then trypsinized and the cells are fully dissociated from each other. The percentage of live cells is determined after staining with trypan blue. A cell suspension at a concentration of from 5·10^4 to 15·10^4 cells/ml (depending on the cell type under consideration) is prepared in a 0.3% agar solution. Next, 200 μl of this suspension are inoculated in Petri dishes 35 mm in diameter, in which are placed 3 ml of a base layer consisting of a 0.5% agar solution. The 200 μl of cell suspension are in turn covered with 1.8 ml of an upper layer consisting of a 0.3% agar solution. The dishes are then placed in an incubator at 37° C., 5% CO2 and 70% humidity until the treatment. This treatment is carried out about 1 to 2 hours after the inoculation. The test compounds are prepared at a concentration 100 times greater than the desired concentration and 50 μl of these treating solutions are placed over the upper layer of agar in the corresponding dishes. In the present study, the final concentration of the test products is 10^−5, 10^−7 and 10^−9 M. The dishes are then kept in an incubator for 21 days. On the 21st day the dishes are treated by depositing on the upper layer 100 μl of a 1 mg/ml solution of MTT (3-(4,5-dimethylthiazol-2-yl)-2,5-diphenyltetrazolinium bromide prepared with RPMI 1640 medium) for 3 h at 37° C. After this period, the cell colonies are fixed by adding 2 ml of formalin per dish. After fixing for 24 hours, the formalin is evaporated off and the number of stained cell colonies, thus consisting of metabolically active cells, and whose surface area is greater than 100 μm^2, is determined using an inverted microscope. […]

Row | SMILES | viability at 10 µM [1] | average number of clones of clonogenic cells, percentage relative to control ([2]; 10^−5 M) | average number of clones of clonogenic cells, percentage relative to control ([2]; 10^−7 M) | average number of clones of clonogenic cells, percentage relative to control ([2]; 10^−9 M)
1 | CCN(CC)C(=O)Cn1c(=O)c(-c2ccc(OC)cc2)cc2c(OC)cc(OC)cc21 [CRL8315, N,N-Diethyl-2-[5,7-dimethoxy-3-(4-methoxy-phenyl)-2-oxo-1,2-dihydro-1-quinolinyl]acetamide] | 89.6 ± 2.1% | 103.5 ± 4.5% | 111.9 ± 5.4% | 112.9 ± 2.4%
2 | COc1ccc(-c2cc3c(OC)cc(OC)cc3n(CCN(C)C)c2=O)cc1 [CRL8316, 1-[2-(Dimethylamino)ethyl]-5,7-dimethoxy-3-(4-methoxyphenyl)-1,2-dihydro-2-quinolinone] | 94 ± 3.2% | 50.6 ± 1.8% | 80.1 ± 2.9% | 101.6 ± 3.2%
3 | COc1ccc(-c2cc3c(OC)cc(OC)cc3n(CCC#N)c2=O)cc1 [CRL8247, 3-[5,7-Dimethoxy-3-(4-methoxyphenyl)-2-oxo-1,2-dihydro-1-quinolinyl]propanenitrile] | 77.8 ± 2.7% | 72.7 ± 3.6% | 98.3 ± 4.9% | 104.5 ± 2.7%
4 | CCN(CC)C(=O)CCn1c(=O)c(-c2ccc(OC)cc2)cc2c(OC)cc(OC)cc21 [CRL8283, N,N-Diethyl-3-[5,7-dimethoxy-3-(4-methoxy-phenyl)-2-oxo-1,2-dihydro-1-quinolinyl]propanamide] | 72.9 ± 0.9% | 88.9 ± 0.2% | 90.9 ± 3.1% | 106.1 ± 1.4%
5 | COc1ccc(-c2cc3c(OC)cc(OC)cc3n(CCc3nnn[nH]3)c2=O)cc1 [CRL8256, 1-[2-(1H-1,2,3,4-Tetrazol-5-yl)ethyl]-5,7-dimethoxy-3-(4-methoxyphenyl)-1,2-dihydro-2-quinolinone] | 78.2 ± 2.6% | 97.1 ± 4.3% | 100.5 ± 4.1% | 107.5 ± 3.7%
6 | COc1ccc(-c2cc3c(OC)cc(OC)cc3[nH]c2=O)cc1 [CRL8246, 5,7-Dimethoxy-3-(4-methoxyphenyl)-1,2-dihydro-2-quinolinone] | 109 ± 3.5% | 70.9 ± 2.8% | 103.3 ± 3.6% | 104 ± 2.7%
